Columns and labels:
Test in all cases: relative viability (nuclei count vs DMSO), 5 days (fraction); higher = more cells survive
Wnt-C59 + Luminespib = compound: CC1=NC=CC(=C1)C2=CC=C(C=C2)CC(=O)NC3=CC=C(C=C3)C4=CN=CC=C4 [Wnt-C59] + CCNC(=O)c1noc(-c2cc(C(C)C)c(O)cc2O)c1-c1ccc(CN2CCOCC2)cc1 [Luminespib] (partner 0.01 µM)
Summary of the method: (§1)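 A single step with final 0.05% Triton X-100, 1% formaldehyde and 1 ug/ml Hoechst fixed the cells and stained nuclei 5 days after treatment. Lung cancer cell lines in 1536-well plates had been treated by pin tool the day after seeding with one drug alone or a fixed anchor-drug dose plus five library-drug doses (not always all listed) in √10 steps, and nuclei were counted on 4× images. Relative viability is the ratio of nuclei in treated wells to nuclei in vehicle wells, taken as the median of duplicate plates.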

Lapatinib + Luminespib = compound: CS(=O)(=O)CCNCc1ccc(-c2ccc3ncnc(Nc4ccc(OCc5cccc(F)c5)c(Cl)c4)c3c2)o1 [Lapatinib] + CCNC(=O)c1noc(-c2cc(C(C)C)c(O)cc2O)c1-c1ccc(CN2CCOCC2)cc1 [Luminespib] (partner 0.01 µM)
Summary of the method: as §1

Lapatinib + Phenformin = compound: CS(=O)(=O)CCNCc1ccc(-c2ccc3ncnc(Nc4ccc(OCc5cccc(F)c5)c(Cl)c4)c3c2)o1 [Lapatinib] + N=C(N)NC(=N)NCCc1ccccc1 [Phenformin] (partner 250 µM)
Summary of the method: as §1

Lapatinib + Vorinostat = compound: CS(=O)(=O)CCNCc1ccc(-c2ccc3ncnc(Nc4ccc(OCc5cccc(F)c5)c(Cl)c4)c3c2)o1 [Lapatinib] + O=C(CCCCCCC(=O)Nc1ccccc1)NO [Vorinostat] (partner 1 µM)
Summary of the method: as §1

| Cell Line | relative viability (Wnt-C59 + Luminespib; first compound 0.001 µM) | relative viability (Wnt-C59 + Luminespib; first compound 0.01 µM) | relative viability (Wnt-C59 + Luminespib; first compound 0.03162 µM) | relative viability (Wnt-C59 + Luminespib; first compound 0.1 µM) | relative viability (Lapatinib + Luminespib; first compound 0.02 µM) | relative viability (Lapatinib + Luminespib; first compound 0.06325 µM) | relative viability (Lapatinib + Luminespib; first compound 0.2 µM) | relative viability (Lapatinib + Luminespib; first compound 0.6325 µM) | relative viability (Lapatinib + Luminespib; first compound 2 µM) | relative viability (Lapatinib + Phenformin; first compound 0.02 µM) | relative viability (Lapatinib + Phenformin; first compound 0.06325 µM) | relative viability (Lapatinib + Phenformin; first compound 0.2 µM) | relative viability (Lapatinib + Phenformin; first compound 0.6325 µM) | relative viability (Lapatinib + Phenformin; first compound 2 µM) | relative viability (Lapatinib + Vorinostat; first compound 0.02 µM) | relative viability (Lapatinib + Vorinostat; first compound 0.06325 µM) | relative viability (Lapatinib + Vorinostat; first compound 0.2 µM) | relative viability (Lapatinib + Vorinostat; first compound 0.6325 µM) | relative viability (Lapatinib + Vorinostat; first compound 2 µM) |
| --- | --- | --- | --- | --- | --- | --- | --- | --- | --- | --- | --- | --- | --- | --- | --- | --- | --- | --- | --- |
| LXF-289 | 0.607 | 0.666 | 0.618 | 0.712 | 0.709 | 0.459 | 0.603 | 0.603 | 0.65 | 0.142 | 0.482 | 0.509 | 0.488 | 0.52 | 0.474 | 0.709 | 0.83 | 0.664 | 0.673 |
| EPLC-272H | 0.309 | 0.519 | 0.389 | 0.302 |  |  | 0.44 | 0.205 | 0.359 |  |  | 0.243 | 0.266 | 0.241 | 0.636 | 0.328 | 0.457 | 0.583 | 0.391 |
| NCI-H838 | 0.279 | 0.347 | 0.311 | 0.303 | 0.25 | 0.341 | 0.381 | 0.258 | 0.283 | 0.685 | 0.381 | 0.675 | 0.683 | 0.511 | 0.699 | 0.69 | 0.743 | 0.732 | 0.544 |
| NCI-H2405 | 0.762 | 0.809 | 0.7 | 0.842 | 0.696 | 0.469 | 0.52 | 0.567 | 0.467 | 0.321 | 0.278 | 0.405 | 0.372 | 0.357 |  | 0.833 |  | 0.997 | 0.91 |
| LC-2-ad | 1.13 | 0.97 | 1.06 | 0.975 |  | 0.865 | 1.2 | 0.988 | 0.942 |  | 0.438 | 0.551 | 0.478 | 0.519 |  | 0.632 | 0.763 | 0.623 | 0.672 |
| NCI-H3122 | 0.0968 | 0.0872 | 0.0839 | 0.0884 | 0.103 | 0.0758 | 0.0797 | 0.0807 | 0.0854 |  | 0.379 | 0.392 | 0.385 | 0.33 | 0.932 | 1.06 | 0.963 | 0.977 | 0.974 |
| NCI-H727 | 0.332 |  | 0.857 | 0.526 |  |  | 0.285 | 0.278 | 0.431 |  |  | 0.536 | 0.511 | 0.508 | 1.17 |  | 1.17 | 1.45 | 1.02 |
| A-427 | 0.886 | 0.943 | 0.715 | 0.933 |  | 0.751 | 0.96 | 0.959 | 1.1 |  | 0.279 | 0.346 | 0.317 | 0.367 | 0.839 | 0.841 | 0.862 | 0.833 | 0.845 |
| 201T | 1.03 | 1.07 | 0.996 | 1.02 | 1.02 | 0.976 | 1.03 | 1.03 | 1.04 | 0.387 | 0.343 | 0.438 | 0.44 | 0.431 | 0.48 | 0.78 | 0.89 | 0.938 | 0.854 |

From the supplement of paper PMC10307832
